Assays:
[1] = test system: Y181C mutant HIV-1 strain; assay: Anti-HIV-1 activity against Y181C mutant strain in MT-4 cells; type: cell-based; settings: MT-4 cells; read-out: EC50 Y181C
[2] = test system: K103N mutant HIV-1 strain; assay: Anti-HIV-1 activity against K103N mutant strain in MT-4 cells; type: cell-based; settings: MT-4 cells; read-out: EC50 K103N
[3] = test system: F227L + V106A double RT mutant HIV-1 strain; assay: Anti-HIV-1 activity against F227L + V106A double mutant strain in MT-4 cells; type: cell-based; settings: MT-4 cells; read-out: EC50 F227L + V106A
[4] = test system: Y188L mutant HIV-1 strain; assay: Anti-HIV-1 activity against Y188L mutant strain in MT-4 cells; type: cell-based; settings: MT-4 cells; read-out: EC50 Y188L
[5] = test system: L100I mutant HIV-1 strain; assay: Anti-HIV-1 activity against L100I mutant strain in MT-4 cells; type: cell-based; settings: MT-4 cells; read-out: EC50 L100I
[6] = test system: K103N + Y181C double RT mutant HIV-1 strain; assay: Anti-HIV-1 activity against K103N + Y181C double mutant strain in MT-4 cells; type: cell-based; settings: MT-4 cells; read-out: EC50 K103N + Y181C
[7] = test system: E138K mutant HIV-1 strain; assay: Anti-HIV-1 activity against E138K mutant strain in MT-4 cells; type: cell-based; settings: MT-4 cells; read-out: EC50 E138K
WT HIV-1 (strain IIIB) = assay: microbe, parasite or virus in culture; type: cell-based; settings: MT-4 cells; protection against virus-induced cytopathicity by 50%; mean of at least three experiments; read-out: EC50 HIV-1 IIIB
Procedure: (§1) The newly synthesized compounds were evaluated for their potency and cytotoxicity against the WT HIV-1 (strain IIIB) in MT-4 cells using the MTT method. The biological evaluation results are represented as EC50 values (anti-HIV-1 activity), CC50 values (cytotoxicity), and SI values (selectivity index, CC50/EC50 ratio).

MT-4 cells = assay: Cytotoxicity in uninfected MT-4 cells, MTT method; type: cell-based; settings: uninfected MT-4 cells; viability reduced by 50%
Procedure: as §1

WT HIV-1 RT = WT HIV-1 RT (Human immunodeficiency virus type 1 group M subtype B, UniProt P03366); assay: Enzymatic assay against WT HIV-1 RT; settings: read-out: IC50 WT HIV-1 RT polymerase activity
Procedure: The enzymatic assay against WT HIV-1 RT was conducted for most compounds (Table 2).

Compound	EC50 [1]	EC50 [2]	EC50 [3]	EC50 [4]	EC50 [5]	EC50 [6]	EC50 [7]	EC50 (WT HIV-1 (strain IIIB))	CC50 (MT-4 cells)	IC50 (WT HIV-1 RT)
N#Cc1ccc(Nc2nccc(C(C#N)c3ccc(-c4ccccc4)cc3)n2)cc1 (racemic) [Compound 10a, (±)-4-((4-([1,1′-biphenyl]-4-yl(cyano)methyl)pyrimidin-2-yl)amino)benzonitrile]	> 30.8 µM	> 30.8 µM	> 30.8 µM	> 30.8 µM	> 30.8 µM	> 30.8 µM	≥ 12600 nM	2900 ± 1890 nM	30.8 ± 8.57 µM	–
N#Cc1ccc(Nc2nccc(C(C#N)c3ccc(-c4ccccc4)c(F)c3)n2)cc1 (racemic) [Compound 10b, (±)-4-((4-(cyano(2-fluoro-[1,1′-biphenyl]-4-yl)methyl)pyrimidin-2-yl)amino)benzonitrile]	> 27.3 µM	> 27.3 µM	> 27.3 µM	> 27.3 µM	≥ 27.3 µM	> 27.3 µM	9290 ± 1370 nM	4960 ± 560 nM	27.3 ± 5.85 µM	460 ± 162 nM
N#Cc1ccc(Nc2nccc(C(C#N)c3ccc(-c4ccccc4)cc3F)n2)cc1 (racemic) [Compound 10c, (±)-4-((4-(cyano(3-fluoro-[1,1′-biphenyl]-4-yl)methyl)pyrimidin-2-yl)amino)benzonitrile]	6.37 ± 0.78 µM	10.3 ± 0.85 µM	> 23.8 µM	> 23.8 µM	≥ 10.3 µM	> 23.8 µM	1690 ± 170 nM	330 ± 70 nM	23.8 ± 4.48 µM	62 ± 24 nM
Cc1ccccc1-c1ccc(C(C#N)c2ccnc(Nc3ccc(C#N)cc3)n2)c(F)c1 (racemic) [Compound 10d, (±)-4-((4-(cyano(3-fluoro-2′-methyl-[1,1′-biphenyl]-4-yl)methyl)pyrimidin-2-yl)amino)benzonitrile]	4.89 ± 1.07 µM	8.14 ± 1.82 µM	> 30.1 µM	> 30.1 µM	3.67 ± 0.54 µM	> 30.1 µM	2500 ± 330 nM	430 ± 210 nM	30.1 ± 1.94 µM	74 ± 24 nM
Cc1cccc(-c2ccc(C(C#N)c3ccnc(Nc4ccc(C#N)cc4)n3)c(F)c2)c1 (racemic) [Compound 10e, (±)-4-((4-(cyano(3-fluoro-3′-methyl-[1,1′-biphenyl]-4-yl)methyl)pyrimidin-2-yl)amino)benzonitrile]	> 26.9 µM	> 26.9 µM	> 26.9 µM	> 26.9 µM	9.14 ± 3.61 µM	> 26.9 µM	3590 ± 1030 nM	430 ± 70 nM	26.9 ± 3.78 µM	101 ± 59 nM
Cc1ccc(-c2ccc(C(C#N)c3ccnc(Nc4ccc(C#N)cc4)n3)c(F)c2)cc1 (racemic) [Compound 10f, (±)-4-((4-(cyano(3-fluoro-4′-methyl-[1,1′-biphenyl]-4-yl)methyl)pyrimidin-2-yl)amino)benzonitrile]	9.27 ± 1.14 µM	8.08 ± 2.74 µM	> 30.9 µM	> 30.9 µM	6.12 ± 1.62 µM	> 30.9 µM	2550 ± 170 nM	430 ± 90 nM	30.9 ± 2.76 µM	93 ± 51 nM
COc1ccccc1-c1ccc(C(C#N)c2ccnc(Nc3ccc(C#N)cc3)n2)c(F)c1 (racemic) [Compound 10g, (±)-4-((4-(cyano(3-fluoro-2′-methoxy-[1,1′-biphenyl]-4-yl)methyl)pyrimidin-2-yl)amino)benzonitrile]	7.79 ± 1.67 µM	9.78 ± 1.6 µM	> 30 µM	> 30 µM	4.27 ± 0.46 µM	> 30 µM	3660 ± 190 nM	610 ± 160 nM	30.1 ± 2.31 µM	233 ± 125 nM
COc1cccc(-c2ccc(C(C#N)c3ccnc(Nc4ccc(C#N)cc4)n3)c(F)c2)c1 (racemic) [Compound 10h, (±)-4-((4-(cyano(3-fluoro-3′-methoxy-[1,1′-biphenyl]-4-yl)methyl)pyrimidin-2-yl)amino)benzonitrile]	> 30.7 µM	> 30.7 µM	> 30.7 µM	> 30.7 µM	8.57 ± 1.26 µM	> 30.7 µM	6160 ± 1470 nM	1500 ± 240 nM	30.7 ± 2.09 µM	219 ± 171 nM
COc1ccc(-c2ccc(C(C#N)c3ccnc(Nc4ccc(C#N)cc4)n3)c(F)c2)cc1 (racemic) [Compound 10i, (±)-4-((4-(cyano(3-fluoro-4′-methoxy-[1,1′-biphenyl]-4-yl)methyl)pyrimidin-2-yl)amino)benzonitrile]	8.57 ± 1.21 µM	27 ± 3 µM	52.5 µM	50.1 ± 6.52 µM	31.6 ± 7.35 µM	> 183 µM	5510 ± 1060 nM	510 ± 420 nM	183 µM	–
N#Cc1ccc(Nc2nccc(C(C#N)c3ccc(-c4ccccc4F)cc3F)n2)cc1 (racemic) [Compound 10j, (±)-4-((4-(cyano(2′,3-difluoro-[1,1′-biphenyl]-4-yl)methyl)pyrimidin-2-yl)amino)benzonitrile]	3.4 ± 0.48 µM	3.93 ± 0.65 µM	> 27.9 µM	> 27.9 µM	6.06 ± 2.46 µM	> 27.9 µM	1030 ± 170 nM	210 ± 50 nM	27.9 ± 3.56 µM	58 ± 32 nM
N#Cc1ccc(Nc2nccc(C(C#N)c3ccc(-c4ccc(F)cc4)cc3F)n2)cc1 (racemic) [Compound 10l, (±)-4-((4-(cyano(3,4′-difluoro-[1,1′-biphenyl]-4-yl)methyl)pyrimidin-2-yl)amino)benzonitrile]	5.1 ± 0.51 µM	6.87 ± 1.17 µM	> 25.6 µM	> 25.6 µM	6.9 ± 1.76 µM	> 25.6 µM	980 ± 130 nM	180 ± 160 nM	25.6 ± 3.58 µM	–
N#Cc1ccc(Nc2nccc(C(C#N)c3ccc(-c4cccc(Cl)c4)cc3F)n2)cc1 (racemic) [Compound 10n, (±)-4-((4-((3′-chloro-3-fluoro-[1,1′-biphenyl]-4-yl)(cyano)methyl)pyrimidin-2-yl)amino)benzonitrile]	9.19 ± 2.05 µM	7.2 ± 0.89 µM	–	> 27.6 µM	8.31 ± 1.2 µM	> 27.6 µM	2670 ± 210 nM	390 ± 100 nM	27.6 ± 4.05 µM	171 ± 132 nM
N#Cc1ccc(Nc2nccc(C(C#N)c3ccc(-c4ccc(Cl)cc4)cc3F)n2)cc1 (racemic) [Compound 10o, (±)-4-((4-((4′-chloro-3-fluoro-[1,1′-biphenyl]-4-yl)(cyano)methyl)pyrimidin-2-yl)amino)benzonitrile]	7.49 ± 1.64 µM	7.32 ± 0.87 µM	> 27.5 µM	> 27.5 µM	5.28 ± 1.29 µM	> 27.5 µM	1500 ± 280 nM	180 ± 140 nM	27.5 ± 7.3 µM	–
N#Cc1ccc(Nc2nccc(C(C#N)c3ccc(-c4ccc(C#N)cc4)cc3F)n2)cc1 (racemic) [Compound 10p, (±)-4′-(cyano(2-((4-cyanophenyl)amino)pyrimidin-4-yl)methyl)-3′-fluoro-[1,1′-biphenyl]-4-carbonitrile]	0.87 ± 0.23 µM	0.9 ± 0.27 µM	–	9.81 ± 1.3 µM	1.21 ± 0.21 µM	> 36.4 µM	170 ± 30 nM	27 ± 15 nM	36.4 µM	59 ± 34 nM
